The text below walks through data of PubChem BioAssay (NCI).

The structures appear in SMILES notation. Values after ≈ are worked out from the molar mass of the structure shown. Values joined by “and” are separate entries in the source; they are usually repeats but may differ in a detail not shown here. Equal values may be shown once.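 Results reflect a 48-hour exposure of cells in 96-well plates to compound at five concentrations. GI50 is the concentration that inhibits growth by half. Definition used: TGI = concentration required for complete inhibition of growth.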 Where only a bound is given, the exact number is not on record here.

Holding throughout (experiment): NCI anticancer screen, dose series, 48 h
Assay [1] has as its system CCRF-CEM leukemia.
For assay [2], the system named is DU-145 prostate.
Assay [3] deals with EKVX NSCLC.
Assay [4] relates to LOX IMVI melanoma.
Assay [5] relates to MALME-3M melanoma.
Assay [6] has as its system MCF7 breast.
The test system of assay [7] is MDA-MB-231 breast.
Assay [8] has as its system MDA-N.
The subject of assay [9] is NCI-H460 lung.
The test system of assay [10] is SK-MEL-2 melanoma.

As to `CC(C)(C)OC[C@H](O)CC#N`, the TGI in assay [1], in assay [2], in assay [3], in assay [4], in [5] and in assay [6] was more than 100 µM in each case. Besides, the TGI in assay [7], in assay [8], in [9] and in assay [10] was more than 100 µM throughout.
With `S=C(S)NCC1CCC(CNC(=S)S)CC1` (centres undefined), the TGI is more than 100 µM in [1]; 63.4 µM in assay [2]; more than 100 µM in assay [3]; 40.8 µM in assay [4]; 63.1 µM in assay [5]; 81.3 µM in [6]. The TGI was 70.1 µM in [7], 81.4 µM in assay [8], more than 100 µM in assay [9] and 58.3 µM in [10].
Turning to `Cc1ccc(N=Nc2c(C)c(C#N)c(=S)n(C3OC(CO)C(O)C(O)C3O)c2-c2ccccc2)cc1` (centres undefined), the TGI was 48.1 µM in assay [1]; more than 100 µM in assay [2]; 31.2 µM in [4]; 47.7 µM in assay [5]; 34.7 µM in assay [6]; more than 100 µM in [7]. Besides, the TGI in assay [8] was 71.7 µM; in [9], more than 100 µM; in assay [10], 45.6 µM.
Take `C[C@]12CC[C@@H]3c4ccc(OC(=O)c5ccccc5)cc4CC[C@H]3[C@@H]1CC[C@@H]2Oc1c2ccccc2nc2ccccc12`: the TGI in assay [1] was 21.2 µM; in [2], 20.3 µM; in [3], 8.96 µM; in [4], 15.6 µM; in [5], 21.6 µM; in assay [6], 46.3 µM. Moreover, the TGI in [7] is 35.2 µM; in [8], 11.6 µM; in [9], 17.1 µM; in [10] it was more than 50 µM.
As to `CC(=O)OCC=C(CCl)CCC(Br)C(C)(C)Br` (mixture of isomers), the TGI in assay [1], in assay [2], in assay [3], in assay [4], in assay [5] and in assay [6] was more than 10 µM each time. The TGI in assay [7], in assay [8], in assay [9] and in assay [10] was more than 10 µM each time.
In the case of `C=C(C)C1CC=C(C)C2(C1)OCC(C)(C)C(C)O2` (centres undefined), the TGI in [1] is 83.4 µM; in assay [2], more than 100 µM; in assay [3], 62.3 µM; in assay [4] it was 31.8 µM; in assay [5] it was 29.5 µM; in [6], 33.9 µM. The TGI in assay [7] was 46.3 µM; in assay [8], 47.4 µM; in [9], more than 100 µM; in assay [10], 34.2 µM.
In the case of `NC(N)=NS(=O)(=O)c1ccc(NC(=O)c2ccc3nc4ccccc4c(Nc4ccc(S(N)(=O)=O)cc4)c3c2)cc1`, the TGI in assay [1], in assay [2], in assay [3], in assay [4], in [5] and in assay [6] was more than 100 µM throughout. For the same compound, the TGI in assay [7], in [8], in assay [9] and in [10] was more than 100 µM in each case.
`Cc1ccc(S(=O)(=O)c2c(O)c3ccccc3n(C)c2=O)cc1`: the TGI in [1], in assay [2], in assay [3], in assay [5], in assay [6] and in assay [7] was more than 100 µM in each case. Moreover, the TGI in assay [8], in [9] and in [10] was more than 100 µM each time.
Turning to `C[n+]1c2ccccc2c(C(=O)Nc2ccc(S(=O)(=O)N=C(N)N)cc2)c2ccccc21`, the TGI in [2] is more than 100 µM; in assay [3] it was more than 100 µM; in [4], more than 100 µM; in assay [5], more than 100 µM; in assay [6], more than 100 µM; in [7] it was 76.5 µM. Besides, the TGI in assay [8], in assay [9] and in [10] was more than 100 µM each time.
On to `CCCCOCn1c(=O)[nH]c(=O)c2cc(Br)ccc21`, for which the TGI in assay [1], in [2], in [3], in assay [4], in [6] and in assay [7] was more than 100 µM throughout. Moreover, the TGI in assay [8] and in [10] was more than 100 µM in each case.
As for `O=S1(=O)c2ccccc2NC(=S)CC1c1ccccc1` (centres undefined), the TGI in assay [1], in assay [2], in [3], in assay [4], in assay [5] and in [6] was more than 100 µM in each case. Also, the TGI in assay [7], in assay [8] and in [9] was more than 100 µM in each case.
Turning to `COc1ccc2nc3cc(Cl)ccc3c(NCCNCCCNC(=O)c3cc(-c4ccccc4)nc4ccccc34)c2c1`, the TGI in assay [1], in [2], in assay [3], in assay [4], in assay [5] and in [6] was more than 100 µM throughout. In addition, the TGI is more than 100 µM in assay [7], 97.5 µM in assay [8] and more than 100 µM in [9].
With `O=C1C(Br)=C(c2ccccc2)S(=O)c2ccccc21` (centres undefined), the TGI in assay [2] turned out to be 27.9 µM; in assay [3], 33.9 µM; in assay [4], 28.2 µM; in [5], 22.4 µM; in assay [6], 10.4 µM; in assay [7], 29.2 µM. The TGI came out at 20.4 µM in assay [8], 40.6 µM in assay [9] and 33.8 µM in [10].
With `COc1cc(/C=C2/N=C(c3ccccc3)N(C3=NNC4(C(=O)N3)c3ccccc3-c3ccccc34)NC2=O)ccc1O`, the GI50 in assay [1] was 46.3 µg/mL; in assay [2] it was 31.3 µg/mL; in [3], 15 µg/mL (≈ 27 µM); in [4], 32.3 µg/mL (≈ 58 µM); in assay [5], 26.5 µg/mL (≈ 47.6 µM); in assay [6], 33.2 µg/mL (≈ 59.6 µM). The GI50 was 19.3 µg/mL (≈ 34.6 µM) in assay [7], 31.1 µg/mL (≈ 55.8 µM) in assay [8] and 28 µg/mL (≈ 50.2 µM) in [9]. Moreover, the TGI in assay [1] was more than 150 µg/mL; in assay [2], 63.6 µg/mL; in assay [3], 15 µg/mL; in [4], 66.8 µg/mL; in assay [5], 57 µg/mL; in [6], 77.1 µg/mL. In addition, the TGI in [7] amounted to 44.5 µg/mL; in assay [8], 65 µg/mL; in [9], 49.1 µg/mL.
For the compound `COc1c2cc(C(C)(C)C)cc1Cc1cccc(c1O)Cc1cc(C(C)(C)C)cc(c1OC)Cc1cccc(c1O)Cc1cc(C(C)(C)C)cc(c1OC)Cc1cccc(c1O)C2`, the TGI in assay [2], in assay [3], in assay [5], in assay [6], in assay [7] and in assay [8] was more than 100 µM in each case. Also, the TGI in [9] and in assay [10] was more than 100 µM each time.
In the case of `CC(=O)O[C@H]1C(=O)[C@@]2(C)[C@H]([C@H](OC(=O)c3ccccc3)[C@]3(O)C[C@H](OC(=O)[C@H](O)[C@@H](NC(=O)CC(C)(C)C)c4ccccc4)C(C)=C1C3(C)C)C1(OC(C)=O)CO[C@@H]1C[C@@H]2O` (some centres undefined), the TGI in assay [1] is more than 10 µM; in assay [2] it was 0.0833 µM; in [3], more than 10 µM; in assay [4] it was more than 10 µM; in assay [6], more than 10 µM; in [7], more than 10 µM. For the same compound, the TGI in assay [8], in assay [9] and in [10] was more than 10 µM each time.
As for `O=C1/C(=C2\Sc3c(ccc(Cl)c3Cl)C2=O)Sc2c1ccc(Cl)c2Cl`, the TGI in assay [1], in assay [2], in assay [3], in assay [5], in assay [6] and in [7] was more than 100 µM each time. Also, the TGI in assay [8], in [9] and in assay [10] was more than 100 µM in each case.
Take `CC(=O)c1cc2c(s1)C(=O)c1ccccc1C2=O`: the TGI worked out at 12 µM in assay [2]; 15.9 µM in assay [3]; 15 µM in assay [4]; 2.65 µM in assay [5]; 6.77 µM in [6]; 41.8 µM in assay [7]. The TGI in assay [8] is 4.74 µM; in [9], more than 33.4 µM; in assay [10], 15.5 µM.
Consider `c1ccc2c(c1)nc1n2CCSC1`, for which the TGI in [1], in [2], in assay [3], in assay [4], in assay [6] and in assay [7] was more than 100 µM throughout. The TGI in assay [8], in [9] and in [10] was more than 100 µM each time.
Consider `COc1ccc2c(c1)/c(=C/c1ccc(N(C)C)cc1)c1cc(-c3ccccc3)[n+](C)n12`, for which the GI50 is 0.0859 µM in assay [1] and 0.108 µM in assay [2]. Besides, the TGI is 2.51 µM and 1.84 µM in [2]; 1.42 µM in assay [3]; 1.51 µM in assay [4]; 7.11 µM in assay [6]; 1.08 µM in [7]; 1.48 µM in [8]. In assay [10], this compound came in with a TGI of 1.61 µM.
On to `COc1cc(C2SCC(=O)N2c2ccc(Oc3ccc(Cl)cc3)c(Cl)c2)cc(OC)c1OC` (centres undefined), for which the TGI in assay [2] was 27.3 µM; in assay [3], 56.2 µM; in assay [4], 36.8 µM; in [5], 37.5 µM; in assay [6], more than 100 µM; in assay [7], 40.3 µM. Moreover, the TGI was 45.1 µM in assay [8], more than 100 µM in [9] and 32.2 µM in [10].
In the case of `O=c1[nH]nc(Cc2ccccc2)n1-n1cnnc1`, the TGI in assay [1], in assay [2], in assay [3], in [4], in assay [6] and in [7] was more than 100 µM each time. The TGI in assay [8] and in assay [10] was more than 100 µM in each case.
`CC(C)N(C)C(=O)C12C3C4C1C1C2C3C41C#N` (centres undefined): the TGI in assay [1], in assay [2], in [3], in assay [4], in assay [6] and in assay [7] was more than 100 µM each time. Further, the TGI in [8], in assay [9] and in [10] was more than 100 µM in each case.
As for `CCOc1cc(C2CC(c3ccc(NS(=O)(=O)c4cc([N+](=O)[O-])ccc4C)cc3)=NN2)ccc1O` (centres undefined), the TGI in assay [1] was more than 100 µM; in assay [2], more than 100 µM; in [3] it was 53.3 µM; in [4], 53 µM; in [5], 75.3 µM; in assay [6] it was 49.6 µM. Besides, the results for the TGI in assay [7], in assay [8] and in assay [10] were 89.2 µM, more than 100 µM and 49.9 µM, respectively.
For `Cn1cnc2c(sc3nc4ccccc4n32)c1=N`, the TGI in [1], in assay [2], in assay [3], in [4], in assay [5] and in assay [6] was more than 100 µM in each case. In addition, the TGI in assay [7], in [8] and in assay [10] was more than 100 µM in each case.
For `COc1ccc(/C=C2\N=C(c3ccccc3)N(C3Nc4cc5c(cc4S3)NC(N3C(=O)/C(=C/c4ccc(OC)cc4)N=C3c3ccccc3)S5)C2=O)cc1` (centres undefined), the TGI in assay [2] was more than 100 µM; in assay [3], 99.5 µM; in assay [4], more than 100 µM; in assay [6] it was more than 100 µM; in assay [7], more than 100 µM; in assay [8], more than 100 µM. Moreover, the TGI in assay [9] was more than 100 µM; in assay [10] it was 97.5 µM.
For the compound `CC(C)OP(=O)(OC(C)C)C(C(C)C)N(C)/C(F)=N/C(F)(F)F` (centres undefined), the TGI in [1], in assay [2], in assay [3], in assay [4], in [5] and in [6] was more than 100 µM in each case. Moreover, the TGI in [7], in [8] and in assay [9] was more than 100 µM in each case.
